In patent publication US8889731B2, “Compounds, compositions and methods for repelling blood-feeding arthropods and deterring their landing and feeding” (Contech Enterprises Inc., priority 2007, dated 2014):

How the values were obtained:
[1] = tested on: Culex quinquefasciatus; experiment: Arm-in-cage repellent/deterrent bioassay on exposed human forearm (modified WHO protocol), Culex quinquefasciatus; format: in vivo
Protocol: (§1) Candidate repellents and deterrents were bioassayed according to a modified protocol from the World Health Organization (1996). At least 1 hour prior to each bioassay, 75 host-seeking non blood-fed, nulliparous, 5- to 8-day-old female Aedes aegypti, Anopheles gambiae or Culex quinquefasciatus were placed into a wood-framed cage (26.5 cm on each side and 42.5 cm high) with a wooden floor, screened mesh sides and top, and a clear acrylic front fitted with a cotton stockinette sleeve (10 cm diameter). The test subject's arm was covered with an elbow-length polyethylene glove with an excised patch (16.6 cm long, 6 cm wide) to expose the ventral forearm of the test subject. Candidate deterrents were formulated in mineral (paraffin) oil and applied to the exposed forearm 5 min prior to inserting the arm into the cage. The inserted arm remained in the cage for 3 min every 30 min. Prior to each 3-min bioassay period, the hand of the untreated arm was inserted into the cage to ascertain that it received 10 bites within 30 sec as an indication of “biting pressure”.
(§2) The bioassay was terminated when the treated arm received ≧2 bites in one 3-min bioassay period or one bite in each of two consecutive bioassay periods. The time elapsed from experiment initiation to first bite was recorded as deterrent failure or complete protection time.
(§3) N,N-diethyl-m-toluamide formulated in ethanol at a corresponding dose served as a positive control, and mineral oil by itself served as a negative control. On each day, only one candidate compound was tested, ensuring that any residual material in the chamber had disappeared before the next bioassay.
To determine the repellence and deterrence of 8-allylsulfanyloctan-1-ol against Culex quinquefasciatus, a 2% and 5% or a 10% formulation of 8-allylsulfanyloctan-1-ol in mineral oil was applied in Experiments 9-11 at a dose of 1.5 mg per cm^2 to the skin of the test person, and was bioassayed according to the protocol described under EXAMPLE 2. In Experiment 12, mineral oil by itself served as a negative control and was tested at the same dose (1.5 mg per cm^2) as in Experiments […]. Each of Experiments 9-11 was replicated 4 times.
To compare the repellence and deterrence against Culex quinquefasciatus caused by 8-allylsulfanyloctan-1-ol as a single active ingredient and by 8-allylsulfanyloctan-1-ol in combination with vanillin as a second active ingredient, we tested a 6.7% emulsion of vanillin (Experiment 22), a 6.7% emulsion of 8-allylsulfanyloctan-1-ol (Experiment 23) and a 13.4% emulsion of 8-allylsulfanyloctan-1-ol plus vanillin (1:1 ratio) (Experiment 24). 8-Allylsulfanyloctan-1-ol and vanillin were formulated in Emulsion No. 1 (see EXAMPLE 9). In each of Experiments […], test stimuli were applied at a dose of 1.5 mg per cm^2 to the skin of the test person, and were bioassayed according to the protocol described under EXAMPLE 2. In Experiment 25, Emulsion No. 1 served as a positive control and was tested at the same dose (1.5 mg per cm^2) as in Experiments 22-24. Each of Experiments 22-25 was replicated three times.

[2] = tested on: Anopheles gambiae; experiment: Arm-in-cage repellent/deterrent bioassay on exposed human forearm (modified WHO protocol), Anopheles gambiae; format: in vivo
Protocol: as §1, §2, §3
To determine the repellence and deterrence of 8-allylsulfanyloctan-1-ol against Anopheles gambiae, a 2%, 5% or a 10% formulation of 8-allylsulfanyloctan-1-ol in mineral oil was applied in Experiments 5-7 at a dose of 1.5 mg per cm^2 to the skin of the test person, and was bioassayed according to the protocol described under EXAMPLE 2. In Experiment 8, mineral oil by itself served as a negative control and was tested at the same dose (1.5 mg per cm^2) as in Experiments 5-7. Each of Experiments 5-8 was replicated 4 times.
To be able to compare the repellence and deterrence caused N,N-diethyl-m-toluamide (DEET), and by 8-allylsulfanyloctan-1-ol, Experiment 13 tested a 2% formulation of N,N-diethyl-m-toluamide in ethanol (the best formulant for this compound) for protection from bites by Anopheles gambiae. A dose of 1.5 mg per cm^2 was applied to the skin of the test person and bioassayed according to the protocol described under EXAMPLE 2.
To compare the repellence and deterrence against Anopheles gambiae caused by 8-allyl-sulfanyloctan-1-ol as a single active ingredient and by 8-allylsulfanyloctan-1-ol in combination with vanillin as a second active ingredient, we tested a 6.7% emulsion of vanillin (Experiment 18), a 6.7-% emulsion of 8-allylsulfanyl-octan-1-ol (Experiment 19) and a 13.4% emulsion of 8-allylsulfanyloctan-1-ol plus vanillin (1:1 ratio) (Experiment 20). 8-Allylsulfanyloctan-1-ol and vanillin were formulated in Emulsion No. 1 (see EXAMPLE 9). In each of Experiments 18-20, test stimuli were applied at a dose of 1.5 mg per cm^2 to the skin of the test person, and were bioassayed according to the protocol described under EXAMPLE 2. In Experiment 21, Emulsion No. 1 served as a positive control and was tested at the same dose (1.5 mg per cm^2) as in experiments 18-20. Each of Experiments 18-21 was replicated three times.

C=CCSCCCCCCCCO [Compound 24, 8-allylsulfanyloctan-1-ol]
protection from bites, average duration ([1]; 2% formulation in mineral oil, 1.5 mg per cm^2, Experiment 9): 198 min | protection from bites, average duration ([1]; 5% formulation in mineral oil, 1.5 mg per cm^2, Experiment 10): 319 min | protection from bites, average duration ([1]; 6.7% single active in Emulsion No. 1 (FIG. 9 legend: 2.0%), 1.5 mg per cm^2, Experiments 22, 23): 242 min | protection from bites, average duration ([1]; 10% formulation in mineral oil, 1.5 mg per cm^2, Experiment 11): 495 min | protection status when experiment was terminated after eight hours ([1]; 10% formulation in mineral oil, Experiment 11, each of the three replicates): complete protection against bites | protection from bites, average duration ([2]; 2% formulation in mineral oil, 1.5 mg per cm^2, Experiment 5): 297 min | protection from bites, average duration ([2]; 5% formulation in mineral oil, 1.5 mg per cm^2, Experiment 6): 314 min | protection from bites, average duration ([2]; 6.7% single active in Emulsion No. 1 (FIG. 8 legend: 2.0%), 1.5 mg per cm^2, Experiments 18, 19): 369 min | protection from bites, average duration ([2]; 10% formulation in mineral oil, 1.5 mg per cm^2, Experiment 7): 487 min
